These results are taken from US20200255844A1, “MULTIPLEXED RECEPTOR-LIGAND INTERACTION SCREENS” (THE REGENTS OF THE UNIVERSITY OF CALIFORNIA, priority 2017, published 2020).

Where a name gives a salt, the structure may show the parent alone.

What all share (assay type): cell-based, mouse
One assay relates to MOR136-1. Kind of assay: High-throughput multiplexed odorant screening (Smell-seq), barcode RNA-seq readout. As to conditions: OR MOR136-1; pair called as hit, FDR=1%. The source says:
(§1) We subsequently screened 182 odorants at three concentrations in triplicate against the OR cell library, the equivalent of ˜85,000 individual luciferase assays including controls (FIG. 10A, Table 2). Each 96-well plate in the assay contained positive control odorants and solvent DMSO wells for normalization (FIG. 16). We used the EdgeR software package to determine differentially responsive ORs based on a negative binomial model of barcode counts. We found 114 OR-odorant interactions (out of 7,200 possible), 81 of which are novel, and 24 interactions with 15 orphan receptors (FIG. 10C, FIG. 17 and Supplementary Table 4) (FDR=1%; Benjamini-Hochberg correction). Overall 28 of 39 receptors were activated by at least one odorant, and 68 of 182 odorants activated at least one OR (Table 4). We chose 37 interactions of at least 1.2 fold induction to test individually with a previously developed transient OR assay that has several important differences (FIG. 18). Of the 28 interactions called as hits at an FDR of 1%, 21 of them replicated in this orthogonal system (FIG. 17). […] Conversely, we also detect 14 interactions that this previous study tested, but called negative.

Another assay has as its system MOR139-1. The assay is described as above. As to conditions: OR MOR139-1; pair called as hit, FDR=1%.
Source text: as §1

For another assay, the system named is MOR131-1. The description is as above. As to conditions: OR MOR131-1; pair called as hit, FDR=1%.
Source text: as §1

A further assay concerns MOR13-1. Kind of assay: High-throughput multiplexed odorant screening (Smell-seq), 96-well, barcode RNA-seq readout. As to conditions: OR MOR13-1; pair called as hit, FDR=1%. The source says: We find that chemicals with similar features activate similar sets of ORs, including those receptors we deorphanize in this study. For example, the previously orphan MOR13-1 is activated by four chemicals with polar groups attached, in three cases, to stiff non-rotatable scaffolds. Another example is, MOR19-1, which has clear affinity for the salicylate functional group. To better understand how chemical similarity relates to receptor activation without relying on incomplete and sometimes arbitrary chemical descriptors, we used a previously validated computational autoencoder to represent each chemical in a ˜292 dimensional latent space, allowing nearly lossless compression of chemical structure (Data not shown). We find chemicals that activate the same OR tend to cluster distinctly (FIG. 10D, FIG. 20). […] Many, but not all of the receptors. […] Understanding the space of chemicals that activates each OR establishes the groundwork for prediction of novel odorant-OR interactions.
(§2) 10. High-Throughput Odorant Screening
(§3) The OR library cell line was thawed from a liquid nitrogen frozen stock into a T-225 flask (Corning) three days before seeding into a 96-well plate for screening. The library was seeded at 6,666 cells per well in 100 ul of DMEM. 24 hours later a working concentration of 1 ug/ml of doxycycline in DMEM was added to the wells. 24 hours after induction, the media was removed from each plate and replaced with 25 ul of odorant diluted in OptiMEM. Each odor was added at three different concentrations (10 uM, 100 uM, 1 mM) in triplicate with the same amount of final DMSO (1%). Each plate contained two control odorants at a three concentration (10 uM, 100 uM, 1 mM) in triplicate and three wells containing 1% DMSO dissolved in media. The library was incubated with odorants for three hours in a cell culture incubator with the lids removed.
After odor incubation, media was pipetted out of the plates and cells were lysed by adding 25 uL of ice-cold Cells-to-cDNA II Lysis Buffer (Thermo Fisher) and pipetting up and down to homogenize and lyse cells. The lysate was then heated to 75° C. for 15 minutes and flash frozen with liquid nitrogen and kept at −80 C until further processing. Then 0.5 uL DNase I (New England Biolabs) was added to lysate, and incubated at 37° C. for 15 minutes. […]
For each batch, qPCR was performed on a few wells (OL005F and OL013) with SYBR FAST qPCR Mastermix to determine the number of cycles necessary for PCR based library preparation. […] Library concentrations were quantified using a Tape Station 2200 and a Qubit (Thermo Fisher). The libraries were sequenced with two index reads and a single end 75-bp read on a NextSeq 500 in high-output mode (Illumina). […]

In another assay the test system is MOR112-1. The assay can be described thus: High-throughput multiplexed odorant screening (Smell-seq), barcode RNA-seq readout. As to conditions: OR MOR112-1; pair called as hit, FDR=1%.
Source text: as §1

The subject of a further assay is Olfr62. The assay is described as above. As to conditions: OR Olfr62; pair called as hit, FDR=1%.
Source text: as §1

Another assay relates to MOR142-1. The description is as above. As to conditions: OR MOR142-1; pair called as hit, FDR=1%.
Source text: as §1

Another assay has as its system MOR119-1. Described as above. As to conditions: OR MOR119-1; pair called as hit, FDR=1%.
Source text: as §1

The test system of another assay is MOR5-1. The assay can be described thus: High-throughput multiplexed odorant screening (Smell-seq), 96-well, barcode RNA-seq readout. As to conditions: OR MOR5-1; pair called as hit, FDR=1%. Here is the method:
as §2, §3
(§4) After odor incubation, media was pipetted out of the plates and cells were lysed by adding 25 uL of ice-cold Cells-to-cDNA II Lysis Buffer (Thermo Fisher) and pipetting up and down to homogenize and lyse cells. The lysate was then heated to 75° C. for 15 minutes and flash frozen with liquid nitrogen and kept at −80 C until further processing. Then 0.5 uL DNase I (New England Biolabs) was added to lysate, and incubated at 37° C. for 15 minutes. To anneal the RT primer, 5 ul of lysate from each well was combined with 2.5 ul of 10 mM dNTPs (New England Biosciences), 1 ul of 2 uM gene specific RT primer (OL003), and 1.5 ul of H2O. The reaction was heated to 65° C. for 5 min and cooled back down to 0° C. After annealing, 1 ul of M-MuLV Reverse Transcriptase (Enzymatics), 1 ul of buffer, and 0.25 ul of RNase Inhibitor (Enzymatics) were added to each reaction. Reactions were incubated at 42° C. for 60 min and the RT enzyme was heat inactivated at 85° C. for 10 min.
For each batch, qPCR was performed on a few wells (OL005F and OL013) with SYBR FAST qPCR Mastermix to determine the number of cycles necessary for PCR based library preparation. The reaction and cycling conditions are optimized as follows: 95° C. for 3 minutes, 40 cycles of 95° C. for 3 seconds and 60° C. for 20 seconds. After qPCR, 5 ul of each RT reaction was combined with 0.4 ul of 10 uM primers containing sequencing adaptors (OL005F and OL013), 10 ul of NEB-Next Q5 Mastermix (New England Biosciences) and 4.2 ul H2O, the PCR was carried out according to the manufacturer's protocol. The forward primer contains the P7 adaptor sequence and an index identifying the well in the assay and the reverse primer contains the P5 adaptor sequence and an index identifying the plate in the assay. PCR products were pooled together by plate and purified with the DNA Clean and Concentrator Kit. Library concentrations were quantified using a Tape Station 2200 and a Qubit (Thermo Fisher). The libraries were sequenced with two index reads and a single end 75-bp read on a NextSeq 500 in high-output mode (Illumina).
11. Analysis of Next-Generation Sequencing Data
Samples were identified via indexing by their PCR indexes adapters unique for each well (5′ end) and unique for each plate (3′ end). The well barcodes followed the 7 bp indexing scheme in (Illumina Sequencing Library Preparation for Highly Multiplexed Target Capture and Sequencing Matthias Meyer, Martin Kircher, Cold Spring Harb Protoc; 2010; doi:10.1101/pdb.prot5448). The plate indexing scheme followed the Illumina indexing scheme. Sequencing data was demultiplexed and 15 bp barcode sequences were counted with only exact matches by custom python and bash scripts.
12. Statistical Methods for Calling Hits
Count data was then analyzed using the differential expression package EdgeR. To filter out ORs with low representation, we set a cutoff that an OR had to contain at least 0.5% of the reads from more than 399 of the 1954 test samples. This filtered out 3 of 42 ORs which were underrepresented in the cell library (MOR172-1, MOR176-1 and MOR181-1). […]

The next assay relates to MOR4-1. The assay can be described thus: High-throughput multiplexed odorant screening (Smell-seq), barcode RNA-seq readout. As to conditions: OR MOR4-1; pair called as hit, FDR=1%.
Source text: as §1

A further assay deals with MOR23-1. The description is as above. As to conditions: OR MOR23-1; pair called as hit, FDR=1%.
Source text: as §1

For another assay, the system named is MOR120-1. Described as above. As to conditions: OR MOR120-1; pair called as hit, FDR=1%.
Source text: as §1

The subject of a further assay is MOR165-1. Described as above. As to conditions: OR MOR165-1; pair called as hit, FDR=1%.
Source text: as §1

Assay [1] has as its system MOR19-1. The assay can be described thus: High-throughput multiplexed odorant screening (Smell-seq), 96-well, barcode RNA-seq readout. As to conditions: for OR-odorant interaction called as hit in the multiplexed screen: MOR19-1, odorant at 10 uM, 100 uM, 1 mM in triplicate, 3 hours, FDR=1% (Benjamini-Hochberg); for Minimum Activating Concentration: OR MOR 19-1, pair called as hit, FDR=1%.
Source text: as §1, §2, §3
as §4, with “After annealing, 1 ul of M-MuLV Reverse Transcriptase (Enzymatics), 1 ul of buffer, and 0.25 ul of RNase Inhibitor (Enzymatics) were added to each reaction. Reactions were incubated at 42° C. for 60 min and the RT enzyme was heat inactivated at 85° C. for 10 min.” left out

For assay [2], the system named is MOR19-1. The assay can be described thus: Odorant-receptor activation luciferase assay (transient), orthogonal follow-up. As to conditions: interactions called as hits at an FDR of 1% tested individually. The source says:
We subsequently screened 182 odorants at three concentrations in triplicate against the OR cell library, the equivalent of ˜85,000 individual luciferase assays including controls (FIG. 10A, Table 2). Each 96-well plate in the assay contained positive control odorants and solvent DMSO wells for normalization (FIG. 16). We used the EdgeR software package to determine differentially responsive ORs based on a negative binomial model of barcode counts. We found 114 OR-odorant interactions (out of 7,200 possible), 81 of which are novel, and 24 interactions with 15 orphan receptors (FIG. 10C, FIG. 17 and Supplementary Table 4) (FDR=1%; Benjamini-Hochberg correction). Overall 28 of 39 receptors were activated by at least one odorant, and 68 of 182 odorants activated at least one OR (Table 4). We chose 37 interactions of at least 1.2 fold induction to test individually with a previously developed transient OR assay that has several important differences (FIG. 18). […]
The Dual-Glo Luciferase Assay System (Promega) was used to measure OR-odorant responses as previously described (Zhuang and Matsunami 2008). […] Luminescence was measured using the M1000 plate reader (Tecan). All luminescence values were normalized to Renilla luciferase activity to control for transfection efficiency in a given well. Data were analyzed with Microsoft Excel and R.

Turning to `C=C(C)C1CCC(C)C(O)C1` (single isomer, unassigned; (+)) [(+)-Dihydrocarveol], the “Minimum Activating Concentration” value in the assay with MOR136-1 was 1000 µM. Regarding `C=C(C)C1CCC(C)C(O)C1` (single isomer, unassigned; (-)) [(−)-Dihydrocarveol], the “Minimum Activating Concentration” value in the assay on MOR136-1 and in the assay with MOR139-1 was 1000 µM throughout. `CCCCCCO` [1-hexanol]: the “Minimum Activating Concentration” value in the assay on MOR131-1 worked out at 1000 µM. As to `CCc1ccccc1O` [2-Ethylphenol], the “Minimum Activating Concentration” value with MOR136-1 turned out to be 100 µM. Regarding `CCC(=O)C(=O)CC` [3,4-Hexanedione], the “Minimum Activating Concentration” value in the assay on MOR131-1 is 1000 µM. As to `CC12CCC(CC1=O)C2(C)C` (stereo not drawn) [(+)-Camphor], the “Minimum Activating Concentration” value in the assay with MOR136-1 is 100 µM. `O=Cc1ccccc1` [Benzaldehyde]: the “Minimum Activating Concentration” value in the assay on MOR13-1, in the assay with MOR112-1 and in the assay on Olfr62 was 1000 µM each time. As for `Cc1occc1SSc1ccoc1C` [Bis(2-methyl-3-furyl)disulphide)], the “Minimum Activating Concentration” value in the assay on MOR142-1 was 1000 µM. On to `CSSCc1ccco1` [Furfuryl methyl disulfide], for which, in the assay with MOR119-1, the “Minimum Activating Concentration” value stood at 1000 µM.

With `CCCCCC(=O)O` [Hexanoic Acid], the “Minimum Activating Concentration” value with MOR5-1, in the assay on MOR4-1 and in the assay with MOR23-1 was 1000 µM each time. On to `CC(C)(O)CCCC1=CCC(C=O)CC1` (stereo not shown) [Lyral], for which the “Minimum Activating Concentration” value in the assay with MOR120-1 is 1000 µM. In the case of `CCCCCCCCCS` [Nonanethiol], the “Minimum Activating Concentration” value in the assay with MOR120-1 is 1000 µM. Regarding `CCCCCCCCOC=O` [Octyl formate], in the assay on MOR165-1, the “Minimum Activating Concentration” value came out at 1000 µM.

For the compound `CCCCC(=O)O` [Pentanoic Acid], the “Minimum Activating Concentration” value in the assay with MOR13-1 and in the assay with MOR4-1 was 1000 µM throughout.

As to `O=C(OCc1ccccc1)c1ccccc1O` [benzyl salicylate], in the assay on MOR19-1 [1], the “OR-odorant interaction called as hit in the multiplexed screen” value is given as “hits” and the “Minimum Activating Concentration” value stood at 10 µM. Moreover, the “replication of the hit in the orthogonal transient OR luciferase assay” value in the assay on MOR19-1 [2] was “did not replicate”. `COC(=O)c1ccccc1O` [methyl salicylate]: in the assay with MOR19-1 [1], the “OR-odorant interaction called as hit in the multiplexed screen” value is “hits” and the “Minimum Activating Concentration” value turned out to be 1000 µM. Moreover, the “replication of the hit in the orthogonal transient OR luciferase assay” value with MOR19-1 [2] is “did not replicate”. As for `CCCCCCCCCCOC(C)=O` [n-Decyl acetate], in the assay on MOR119-1, the “Minimum Activating Concentration” value was 100 µM.

With decanedioic acid (sebacic acid), the “Minimum Activating Concentration” value with MOR165-1 was determined as 1000 µM.
